Key:
[1] = target: T1, recombinant human liver glycogen phosphorylase (Homo sapiens, UniProt P06737); test: Measuring liver glycogen phosphorylase activity (forward reaction system, NADPH absorbance at 340 nm); assay type: biochemical
T1 construct: made in house; host or cells: Sf9 insect cells (crude homogenate, diluted, used as the enzyme solution)
T1 sequence (P06737 1-847): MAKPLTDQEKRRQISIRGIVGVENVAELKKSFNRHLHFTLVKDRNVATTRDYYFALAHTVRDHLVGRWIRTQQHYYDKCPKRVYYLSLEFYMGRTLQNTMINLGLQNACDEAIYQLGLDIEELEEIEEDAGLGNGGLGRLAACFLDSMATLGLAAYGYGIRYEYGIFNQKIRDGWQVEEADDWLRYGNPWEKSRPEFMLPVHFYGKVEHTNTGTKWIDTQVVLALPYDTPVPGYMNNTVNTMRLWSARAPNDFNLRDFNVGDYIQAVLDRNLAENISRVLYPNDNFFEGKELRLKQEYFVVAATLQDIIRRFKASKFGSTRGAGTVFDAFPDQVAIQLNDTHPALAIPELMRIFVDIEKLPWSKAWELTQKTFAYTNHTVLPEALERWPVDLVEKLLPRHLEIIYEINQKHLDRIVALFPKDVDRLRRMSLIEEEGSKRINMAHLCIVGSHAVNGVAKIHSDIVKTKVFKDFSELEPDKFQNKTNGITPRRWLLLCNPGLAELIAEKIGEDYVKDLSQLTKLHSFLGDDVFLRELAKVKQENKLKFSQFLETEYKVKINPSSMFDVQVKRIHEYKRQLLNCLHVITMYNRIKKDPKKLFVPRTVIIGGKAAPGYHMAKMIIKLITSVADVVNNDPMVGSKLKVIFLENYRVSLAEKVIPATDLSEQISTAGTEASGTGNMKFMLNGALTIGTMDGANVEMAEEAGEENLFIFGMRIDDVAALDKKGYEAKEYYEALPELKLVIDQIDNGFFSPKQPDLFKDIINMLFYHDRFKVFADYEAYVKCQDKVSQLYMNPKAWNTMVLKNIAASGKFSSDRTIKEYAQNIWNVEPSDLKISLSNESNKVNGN
Summary of the method: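 Compounds in 1% DMSO; activity taken as blank-subtracted 340 nm absorbance change across 75 min at room temperature. Forward reaction: glucose-1-phosphate released from glycogen converted by coupling enzymes, yielding NADPH; enzyme from recombinant Sf9 homogenate, reaction containing glucose, pH 6.8. IC50 from two-point linear interpolation.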

db/db mice = test: Measuring blood plasma glucose concentration in db/db mice (hypoglycemic effect); assay type: in vivo; set-up: key: ++: compounds exhibiting statistically significant hypoglycemic effect at a dose of 10 mg/kg or less; +: compounds exhibiting not significant but obvious hypoglycemic effect at a dose of 10 mg/kg; settings: for vivo (hypoglycemic effect in db/db mice): db/db mice fasted 4 h, oral administration, plasma glucose 1 and 3 hours after administration, dose 10 mg/kg or less, Dunnett test vs solvent
Summary of the method: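 db/db mice aged 9-18 weeks, grouped 5 or 8 per group matched on plasma glucose, fasted 4 h, then dosed orally with compound or 0.5% methylcellulose vehicle. Plasma glucose measured 1 and 3 h post-dose; each timepoint compared against vehicle by Dunnett test.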

[2] = enzyme inhibitory activity with respect to liver glycogen phosphorylase, class symbols

| Structure (SMILES) | IC50 [1, 2] [nM] | IC50 ([1]; human liver glycogen phosphorylase, class symbol) [nM] | vivo (hypoglycemic effect in db/db mice) (db/db mice) | vivo (hypoglycemic effect) (db/db mice; db/db mice, blood plasma glucose, dose of 10 mg/kg or less) | vivo (hypoglycemic effect in db/db mice) (db/db mice; 10 mg/kg) |
| --- | --- | --- | --- | --- | --- |
| Cl.O=C(NCc1ccncc1)c1cc(NC(=O)c2cc(F)c(F)cc2Cl)[nH]n1 [Example 3-21] | < 100 |  | ++ |  |  |
| CCCN(Cc1c(Cl)cncc1Cl)C(=O)c1cc(NC(=O)c2cc(F)c(F)cc2Cl)[nH]n1 [Example 1-136] | < 100 |  | + |  |  |
| COc1ncccc1CNC(=O)c1cc(NC(=O)c2cc(F)c(F)cc2Cl)[nH]n1 [Example 3-35] | < 100 |  | ++ |  |  |
| CCCCN(CC)C(=O)c1cc(NC(=O)c2cc(F)c(F)cc2Cl)[nH]n1 [Example 1-87] | < 100 |  | + |  |  |
| O=C(NCc1ccc(N2CCC(O)CC2)nc1)c1cc(NC(=O)c2cc(F)c(F)cc2Cl)[nH]n1 [Example 1-138] | < 100 |  | + |  |  |
| CCCCN(Cc1cccnc1)C(=O)c1cc(NC(=O)c2cc(F)c(F)cc2Cl)[nH]n1 [Example 1-107] | < 100 |  | ++ |  |  |

More lines, main results first:

| IC50 [1, 2] [nM] | IC50 ([1]; human liver glycogen phosphorylase, class symbol) [nM] | Structure (SMILES) | vivo (hypoglycemic effect in db/db mice) (db/db mice) | vivo (hypoglycemic effect) (db/db mice; db/db mice, blood plasma glucose, dose of 10 mg/kg or less) | vivo (hypoglycemic effect in db/db mice) (db/db mice; 10 mg/kg) |
| --- | --- | --- | --- | --- | --- |
| < 100 |  | Cc1nc(C)c(CNC(=O)c2cc(NC(=O)c3cc(F)c(F)cc3Cl)[nH]n2)s1.Cl [Example 5-33] | + |  |  |
|  | < 100 | CN(C)C=Nc1cccc(CNC(=O)c2cc(NC(=O)c3cc(F)c(F)cc3Cl)[nH]n2)c1.Cl [Example 6-22] |  | + |  |
| < 100 |  | CN(C)c1ccc(CNC(=O)c2cc(NC(=O)c3cc(F)c(F)cc3Cl)[nH]n2)cn1 [Example 5-27] |  |  | ++ |
| < 100 |  | O=C(NCc1ccc(N2CCCCC2)nc1)c1cc(NC(=O)c2cc(F)c(F)cc2Cl)[nH]n1 [Example 5-24] | ++ |  |  |
